Data from US20150038333A1, “PLANT PROTECTIVE COMPOSITION CONTAINING ALPHA-HYDROXY ACIDS” (HELMHOLTZ ZENTRUM MÜNCHEN DEUTSCHES FORSCHUNGSZENT -RUN FÜR …, priority 2011, published 2015).

How the values were obtained:
UGT76B1 = target: T1, UGT76B1 (Arabidopsis thaliana, UniProt Q9C768); assay: In vitro glucosyltransferase activity assay of recombinant UGT76B1; format: biochemical; settings: 0.5 mM aglycone, 5 mM UDP-glucose, 1 hour at 30° C., analyzed by mass spectrometry
T1 construct: The UGT76B1 open reading frame was amplified with the same primers as used for the construction of the overexpression lines; made in house
T1 sequence (Q9C768 1-447): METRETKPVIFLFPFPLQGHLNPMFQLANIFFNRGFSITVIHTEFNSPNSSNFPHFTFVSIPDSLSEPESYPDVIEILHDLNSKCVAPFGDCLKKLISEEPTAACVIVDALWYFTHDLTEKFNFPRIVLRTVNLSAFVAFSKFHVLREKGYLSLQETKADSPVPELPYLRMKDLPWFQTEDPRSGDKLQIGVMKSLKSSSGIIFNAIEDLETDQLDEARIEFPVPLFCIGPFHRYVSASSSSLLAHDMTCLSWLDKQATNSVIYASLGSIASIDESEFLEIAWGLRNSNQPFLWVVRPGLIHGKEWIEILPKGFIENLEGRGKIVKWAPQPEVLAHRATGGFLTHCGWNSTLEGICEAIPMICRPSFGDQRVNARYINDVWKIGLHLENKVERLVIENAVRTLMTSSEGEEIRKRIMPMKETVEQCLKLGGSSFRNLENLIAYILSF
Text: A glutathione-S-transferase (GST)-UGT761 expression plasmid was constructed using pDEST15 (Invitrogen, Germany). The UGT76B1 open reading frame was amplified with the same primers as used for the construction of the overexpression lines. The recombinant protein was affinity-purified using a glutathione-coupled sepharose beads according to the manufacturer's instructions (GE Healthcare, Germany), concentrated by membrane filtration (Amicon Ultra-4; Millipore, Germany) and supplemented with 20% glycerol for storage at −20° C. (Messner et al., 2003). To analyze the UGT enzyme activity assay mixtures contained 0.1 M Tris-HCl (pH 7.5), 5 mM UDP-glucose, 0.5 mM aglycone and about 1 μg fusion protein in a final volume of 50 μL. After incubation for 1 hour at 30° C. the reaction was stopped by addition of 200 μL methanol and cleared by centrifugation. Reactions were diluted 1:50 in 70% methanol (except for valic acid, which was used without dilution) and analyzed on a API4000 mass spectrometer using direct injection into the electrospray source at a flow rate of […]. 150 Scans were accumulated for each measurement in dual ion monitoring mode, which was adjusted to monitor ions at nominal m/z ratios of the corresponding expected substrate and product peaks with a mass range of ±5 Da.

[1] = test system: defence marker genes PR1, PDF1.2 and VSP2; assay: Defense marker gene expression in Col-0 plants after spraying with α-hydroxy-acid (RTqPCR); format: in vivo, Arabidopsis; settings: for expression of defense marker genes (PR1 and PDF1.2): 4-week-old Col-0 plants, 24 h after treatment, 1 mM in water, preliminary, two biological replicates
Experimental: Rosette leaves of the indicated age were collected. Total RNA was isolated using the RNeasy Plant Mini Kit (Qiagen, Germany). RNA integrity and amount was analyzed by gel electrophoresis and by spectrophotometry. One microgram of total RNA was reverse transcribed using a SuperScript II reverse transcription-PCR kit (Invitrogen; Germany) according to the manufacturer's instructions. Gene-specific primer pairs were designed using the Primer Express 3.0 software. […] Real time quantification was performed using a 7500 real time PCR system (Applied Biosystems, Germany). Individual PCR reaction mixtures contained 4 μL of diluted cDNA, 10 μL of Sybr Green Mastermix (Thermo Scientific, Germany) and […] of each primer in a final volume of 20 μL. In all experiments, three biological replicates of each sample and two technical (PCR) replicates were performed. The amount of target gene was normalized over the abundance of the constitutive UBQ5 (At3g62250) and S16 (At5g18380, At2g09990) genes. The stability of the reference genes was tested and normalization was performed using GeNorm (Vandesompele et al., 2002). For RTqPCR of infected material, plants were infected as described below. Three biological replicates were analyzed; each consisted of six individually infected leaves. Plant material was harvested before infection and mock treatments (time point 0) and at the indicated time points after treatment. Each experiment was repeated with similar results.
For isoleucic acid treatment, 4-week-old plants were sprayed with 0.5 or 1 mM isoleucic acid (diluted in water) or only water for mock treatments. Plants were covered with a plexiglass lid until the surface of the leaves became dry. The fifth to eighth true leaves of each plant were harvested 24 hours after treatment. Four leaves from three independent plants were pooled for each replicate and analyzed by real-time PCR.

[2] = test system: P. syringae pv. tomato DC3000 (avrRpm1) (Ps-avir); assay: Bacterial growth in Arabidopsis leaves of wild-type plants sprayed with ILA before infection; format: in vivo, Pseudomonas syringae
Experimental: FIG. 14: Direct effect of exogenously applied ILA on pathogen defence. Bacterial growth in Arabidopsis leaves of wild-type plants sprayed with water (blank) or 1 mM ILA (dotted) 24 h or 72 h before infection. Plants were inoculated with 5*10^5 cfu ml^−1 of Ps-avir and bacteria (cfu cm^−2) were quantified 0 and 3 days after inoculation. The graphs represent the means and standard deviations of three replicates.
Bacterial strains used in this study include Pseudomonas syringae pv. tomato DC3000 (Ps), P. syringae pv. tomato DC3000 (avrRpm1) (Ps-avir). Bacteria were grown overnight at 28° C. in King's B medium with appropriate antibiotics and diluted to 5*10^5 cfu mL^−1 with 10 mM MgCl2 for plant inoculation. Whole leaves of 5- to 6-week-old plants were infiltrated using a 1-mL syringe without a needle. Control plants were infiltrated with 10 mM MgCl2. Leaf discs from control treated and infected plants were harvested from inoculated leaves at 0, 1 and 3 d after infiltration. Bacterial growth was assessed as described previously (Katagiri et al., 2002). For each time point, three samples were made by pooling six leaf discs from three different treated plants.

[3] = test system: pathogen responsive genes PR1 and PR10; assay: Induction of defence genes in barley leaves (semiquantitative PCR); format: in vivo, Hordeum vulgare; settings: 2-week-old plants sprayed with 1 mM ILA, 48 h after treatment
Experimental: Total RNA was isolated using the RNeasy Plant Mini Kit (Qiagen, Germany). RNA integrity and amount was analyzed by gel electrophoresis and by spectrophotometry. One microgram of total RNA was reverse transcribed using a QuantiTect reverse transcription-PCR kit (Qiagen; Germany) according to the manufacturer's instructions. The following gene-specific primer pairs were kindly provided by Corina Vlot: EF1A_Hv_f (5′-[…]-3′) and EF1A_Hv_r (5′-[…]-3′) for the barley reference gene EF1A; PR1_Hv_f (5′-[…]-3′) and PR1_Hv_r (5′-[…]-3′) for barley PR1; Hv, PR10_Hv_f (5′-[…]-3′) and PR10_Hv_r (5′-[…]-3′) for barley PR10. PCR fragments were amplified using the indicated number of PCR cycles (FIG. 17) and separated on a 2% agarose gel containing ethidium bromide.
For ILA treatment in barley, 2-week-old plants were sprayed with either 1 mM ILA or 0.25 mg/ml BTH (benzothiadiazole/BION™), dissolved in water with 0.01% tween. For mock treatment, plants were sprayed only with water containing 0.01% tween. Leaves were harvested 48 hours after treatment and analyzed by semiquantitative PCR.

[4] = leaves of four-week-old Col-0 plants, 24 h after spraying isoleucic acid solution

CCC(O)(CC)C(=O)O [2-ethyl-2-hydroxybutyric acid]
glucosylation by recombinant UGT76B1 (UGT76B1): no activity

CCCCCCC(O)C(=O)O (stereo not drawn) [2-hydroxy-octanoic acid]
expression of defense marker genes (PR1 and PDF1.2) [1]: can also induce

CCC(C)C(O)C(=O)O (stereo not drawn) [isoleucic acid, 2-hydroxy-3-methylpentanoic acid]
glucosylation by recombinant UGT76B1 (UGT76B1): glucosylated
persistence of increased resistance after ILA spraying ([2]; 1 mM ILA sprayed 24 h or 72 h before Ps-avir infection): 1 to 3 days
bacterial growth compared with mock treatment ([2]; 1 mM ILA sprayed 24 h or 72 h before infection with 5*10^5 cfu ml^-1 Ps-avir, bacteria quantified 3 days after inoculation): about four- to fivefold less bacterial growth
PDF1.2 expression relative to mock (water) treatment [1, 4]: tendency for induction
VSP2 expression relative to mock (water) treatment [1, 4]: only marginally suppressed
PR1 expression relative to mock (water) treatment ([1]; leaves of four-week-old Col-0 plants, 24 h after spraying isoleucic acid solution (0.5 or 1 mM)): more than tenfold induced
PR1 transcript level in barley [3]: induces
PR10 transcript level in barley [3]: induces

CC(C)[C@H](O)C(=O)O [valic acid, (S)-(+)-2-hydroxy-3-methylbutyric acid]
glucosylation by recombinant UGT76B1 (UGT76B1): able to glucosylate
expression of defense marker genes (PR1 and PDF1.2) [1]: can also induce
